The text below walks through data of ChEMBL document CHEMBL2331139, “Discovery of BAF312 (Siponimod), a Potent and Selective S1P Receptor Modulator” (ACS Med Chem Lett, 2013).

Active and inactive are the calls of the source. No cut-off for these calls is given here. Bounds are passed on as bounds.

In data set [1] the target is T1, Sphingosine 1-phosphate receptor 1 (Homo sapiens, UniProt P21453). Kind of data set: Agonist activity at human S1P1 receptor transfected in CHO cells incubated for 10 to 15 mins prior to GTPgamma35S addition measured after 120 mins by GTPgamma35S binding assay. It is filed as functional, cell-based.
T1 sequence (P21453 whole entry): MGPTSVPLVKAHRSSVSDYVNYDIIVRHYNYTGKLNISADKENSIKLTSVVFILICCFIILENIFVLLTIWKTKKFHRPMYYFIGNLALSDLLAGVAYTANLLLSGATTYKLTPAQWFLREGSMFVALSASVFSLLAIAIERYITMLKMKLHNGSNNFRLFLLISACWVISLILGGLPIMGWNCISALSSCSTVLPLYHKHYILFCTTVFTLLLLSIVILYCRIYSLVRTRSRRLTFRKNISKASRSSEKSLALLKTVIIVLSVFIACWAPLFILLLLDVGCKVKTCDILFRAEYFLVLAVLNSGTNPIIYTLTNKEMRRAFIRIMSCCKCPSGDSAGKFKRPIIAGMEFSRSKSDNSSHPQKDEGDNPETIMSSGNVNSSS
For data set [2], the target named is T1, Sphingosine 1-phosphate receptor 1. The data set is described as follows: Agonist activity at human S1P1 receptor transfected in CHO cells at 10 uM incubated for 10 to 15 mins prior to GTPgamma35S addition measured after 120 mins by GTPgamma35S binding assay relative to S1P. Format: functional, cell-based. (GTPγS is a poorly hydrolysed GTP analogue; its binding reports G protein activation.)

The target in data set [3] is T2, Sphingosine 1-phosphate receptor 3 (Homo sapiens, UniProt Q99500). Kind of data set: Agonist activity at human S1P3 receptor transfected in CHO cells at 10 uM incubated for 10 to 15 mins prior to GTPgamma35S addition measured after 120 mins by GTPgamma35S binding assay relative to S1P. Format: functional, cell-based.
T2 sequence (Q99500 whole entry): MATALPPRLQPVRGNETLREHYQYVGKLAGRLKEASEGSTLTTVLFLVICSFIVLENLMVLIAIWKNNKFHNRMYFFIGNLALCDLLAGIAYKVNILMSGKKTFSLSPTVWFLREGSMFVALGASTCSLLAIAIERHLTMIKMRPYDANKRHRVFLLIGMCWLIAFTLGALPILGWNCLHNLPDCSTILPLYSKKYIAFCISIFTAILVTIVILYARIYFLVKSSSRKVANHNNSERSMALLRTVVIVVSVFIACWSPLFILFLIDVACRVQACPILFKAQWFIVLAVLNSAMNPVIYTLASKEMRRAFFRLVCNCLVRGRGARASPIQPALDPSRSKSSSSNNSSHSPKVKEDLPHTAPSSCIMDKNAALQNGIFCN
Data set [4] has as its target T2, Sphingosine 1-phosphate receptor 3. The data set is described as follows: Agonist activity at human S1P3 receptor transfected in CHO cells incubated for 10 to 15 mins prior to GTPgamma35S addition measured after 120 mins by GTPgamma35S binding assay. Format: functional, cell-based.
Another data set concerns Mus musculus. The data set is described as follows: Volume of distribution at steady state in po dosed mouse. It is filed as ADME, organism-based. The conditions noted are these: in vivo.
A short description of data set [5]: Elimination half life in po dosed mouse. The conditions noted are these: in vivo, read-out: beta t1/2. It is filed as ADME, organism-based.
The next data set deals with Caco-2. The data set is described as follows: Permeability across human Caco2 cells at 0.5 to 50 uM. It is filed as ADME, cell-based. Particulars: caco-2, 50 µM. In general terms: Passage across Caco-2 layers is used to estimate intestinal permeability.
Data set [6] is described as follows: Plasma protein binding in rat. Format: ADME, cell-free. Particulars: read-out: PPB.
For data set [7], the system named is Rattus norvegicus. Kind of data set: Reduction in peripheral lymphocyte count in Lewis rat at 1 mg/kg, po after 48 hrs. Format: functional, organism-based. Also on record: dose 1 mg/kg.
A short description of data set [8]: Plasma protein binding in human. Format: ADME, cell-free. Particulars: read-out: PPB.
Data set [9] can be described thus: Terminal half life in monkey. It is filed as ADME, organism-based, Macaca mulatta. Particulars: rhesus monkey, in vivo; read-out: beta t1/2 (converted).
Data set [10] is described as follows: Oral bioavailability in rat. Format: ADME, organism-based. Particulars: in vivo.
A short description of data set [11]: Tmax in Lewis rat at 1 mg/kg, po after 8 hrs. Also on record: dose 1 mg/kg, route oral. It is filed as ADME, organism-based. The conditions noted are these: in vivo.
Data set [12] in a line: Clearance in rat. The conditions noted are these: in vivo. Format: ADME, organism-based.
Data set [13] in a line: Volume of distribution at steady state in rat. The conditions noted are these: in vivo, read-out: Vdss. Format: ADME, organism-based.
Data set [14] in a line: Plasma protein binding in monkey. It is filed as ADME, cell-free, Macaca mulatta. The conditions noted are these: rhesus monkey, read-out: PPB.
The species named for data set [15] is Rattus norvegicus. Kind of data set: Drug excretion in rat. It is filed as ADME, organism-based. The conditions noted are these: in vivo.
A short description of data set [16]: Plasma protein binding in dog. The conditions noted are these: read-out: PPB. It is filed as ADME, cell-free, Canis lupus familiaris.
Data set [17] is described as follows: Volume of distribution at steady state in monkey. It is filed as ADME, organism-based, Macaca mulatta. Particulars: rhesus monkey, in vivo; read-out: Vdss.
Data set [18] in a line: Clearance in monkey. It is filed as ADME, organism-based, Macaca mulatta. Particulars: rhesus monkey, in vivo.
For data set [19], the system named is Rattus norvegicus. Kind of data set: Reduction in peripheral lymphocyte count in po dosed Lewis rat after 6 hrs. Format: functional.
For the next data set, the target named is hERG (KCNH2) (Homo sapiens, UniProt Q12809). Kind of data set: Inhibition of human ERG channel at 25 uM.
hERG (KCNH2), sequence (Q12809 whole entry): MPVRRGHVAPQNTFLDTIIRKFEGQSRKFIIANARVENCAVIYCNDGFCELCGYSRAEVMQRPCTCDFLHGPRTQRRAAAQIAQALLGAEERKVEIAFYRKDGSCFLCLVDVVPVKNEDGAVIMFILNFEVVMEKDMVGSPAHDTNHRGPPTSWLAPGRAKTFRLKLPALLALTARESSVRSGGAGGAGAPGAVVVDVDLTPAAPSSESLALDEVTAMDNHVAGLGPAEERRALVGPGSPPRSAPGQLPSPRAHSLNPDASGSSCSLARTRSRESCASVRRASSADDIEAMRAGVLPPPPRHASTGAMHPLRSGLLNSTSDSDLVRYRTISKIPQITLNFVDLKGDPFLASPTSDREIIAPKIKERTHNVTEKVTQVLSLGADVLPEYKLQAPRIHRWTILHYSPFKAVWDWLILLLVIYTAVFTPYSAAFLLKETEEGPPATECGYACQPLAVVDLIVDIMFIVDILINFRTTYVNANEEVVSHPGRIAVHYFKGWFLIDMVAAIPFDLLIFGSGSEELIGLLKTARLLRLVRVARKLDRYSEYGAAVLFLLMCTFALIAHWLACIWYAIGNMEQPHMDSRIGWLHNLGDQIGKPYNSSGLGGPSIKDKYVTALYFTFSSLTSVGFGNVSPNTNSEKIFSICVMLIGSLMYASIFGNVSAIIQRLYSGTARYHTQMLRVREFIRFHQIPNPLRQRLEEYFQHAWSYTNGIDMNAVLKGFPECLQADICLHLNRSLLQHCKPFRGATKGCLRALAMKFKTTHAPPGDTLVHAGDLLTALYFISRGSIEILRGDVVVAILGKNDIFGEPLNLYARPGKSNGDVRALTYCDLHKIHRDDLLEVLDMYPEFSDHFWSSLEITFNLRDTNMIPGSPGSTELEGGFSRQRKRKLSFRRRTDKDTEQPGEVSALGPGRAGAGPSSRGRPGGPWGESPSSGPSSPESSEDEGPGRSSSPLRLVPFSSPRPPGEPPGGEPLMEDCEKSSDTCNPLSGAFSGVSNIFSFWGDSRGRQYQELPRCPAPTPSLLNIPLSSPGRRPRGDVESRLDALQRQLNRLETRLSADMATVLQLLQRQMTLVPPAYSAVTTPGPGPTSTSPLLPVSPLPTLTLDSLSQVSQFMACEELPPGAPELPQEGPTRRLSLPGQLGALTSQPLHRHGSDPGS
Data set [20] is described as follows: Oral bioavailability in monkey. Format: ADME, organism-based, Macaca mulatta. The conditions noted are these: rhesus monkey, in vivo.
In data set [21] the test system is Rattus norvegicus. Kind of data set: Reduction in peripheral lymphocyte count in Lewis rat at 1 mg/kg, po after 8 hrs. It is filed as functional. Also on record: scale not given: the % may be the effect or the level left.
Data set [22] can be described thus: Drug absorption in rat. Format: ADME, organism-based. The conditions noted are these: in vivo, read-out: Fabs.
Data set [23] can be described thus: Terminal half life in rat. It is filed as ADME, organism-based. Particulars: in vivo, read-out: beta t1/2 (converted).

In the case of `C/C(=N\OCc1ccc(C2CCCCC2)c(C(F)(F)F)c1)c1ccc(CNCCC(=O)O)c(C2CC2)c1`, the EC50 was 0.4 nM in [1] and 1300 nM in data set [4]. The values for the Emax in data set [2] and in data set [3] were 98% and 63%, respectively.

Turning to `C/C(=N\OCc1ccc(C2CCCCC2)c(C(F)(F)F)c1)c1ccc(CNCCC(=O)O)c(C)c1`, the EC50 in data set [1] turned out to be 2 nM; in data set [4] it was 5900 nM. Moreover, the Emax came out at 94% in data set [2] and 159% in [3].

Consider `C/C(=N\OCc1ccc(-c2ccc(F)c(F)c2)c(C(F)(F)F)c1)c1ccc(CNCCC(=O)O)cc1`, for which the EC50 in data set [1] was determined as 16 nM.

Turning to `C/C(=N\OCc1ccc(C2CCCCC2)c(C(F)(F)F)c1)c1ccc(CNCCC(=O)O)c(Cl)c1`, the EC50 in data set [1] was 0.6 nM; in data set [4] it was 1900 nM. Also, the Emax in data set [2] turned out to be 106%; in data set [3], 50%.

Molecule `COc1ccc(-c2ccc(CO/N=C(\C)c3ccc(CNCCC(=O)O)cc3)cc2)cc1` showed an EC50 in data set [1] of 1500 nM.

On to `C/C(=N\OCc1ccc(C2CCCCC2)c(C(F)(F)F)c1)c1ccc(CNCCC(=O)O)cn1`, for which the EC50 in [1] amounted to 1.4 nM; in data set [4], 2600 nM. Also, the Emax in data set [2] worked out at 92%; in data set [3] it was 53%.

`C/C(=N\OCc1ccc(-c2ccccc2C(F)(F)F)cc1)c1ccc(CNCCC(=O)O)cc1` showed an EC50 in data set [1] of 1700 nM.

In the case of `C/C(=N\OCc1ccc(-c2ccccc2)cc1F)c1ccc(CNCCC(=O)O)cc1`, in data set [1], the EC50 worked out at 120 nM.

For the molecule `C/C(=N\OCc1ccc(-c2cccs2)c(C(F)(F)F)c1)c1ccc(CNCCC(=O)O)cc1`, the figures for the EC50 in data set [1] and in data set [4] were 18 nM and 5900 nM, respectively.

With `C/C(=N\OCc1ccc(C2CCCC2)c(C(F)(F)F)c1)c1ccc(CNCCC(=O)O)cc1`, the EC50 in [1] came to 0.6 nM; in data set [4] it was 1600 nM.

`C/C(=N\OCc1ccc(-c2ccc(C)cc2)c(C(F)(F)F)c1)c1ccc(CNCCC(=O)O)cc1` yielded an EC50 in data set [1] of 94 nM.

Regarding `C/C(=N\OCc1ccc(C2CCCCC2)c(C(F)(F)F)c1)c1ccc(CN2CC(C(=O)O)C2)c(C)c1`, the EC50 came to 1.6 nM in data set [1] and 3200 nM in data set [4]. Moreover, the Emax in data set [2] was found to be 80%; in data set [3], 127%.

For the molecule `C/C(=N\OCc1ccc(-c2ccccc2)cc1)c1ccc(CNCCC(=O)O)cc1`, a half-maximal effect in [1] (EC50) was put at 300 nM.

For `CCc1cc(/C(C)=N/OCc2ccc(C3CCCCC3)c(C(F)(F)F)c2)ccc1CNCCC(=O)O`, the results for the EC50 in data set [1] and in [4] were 0.7 nM and 7200 nM, respectively. The Emax was 92% in data set [2] and 43% in data set [3].

Molecule `C/C(=N\OCc1ccc(-c2ccc(C(F)(F)F)cc2)cc1)c1ccc(CNCCC(=O)O)cc1` yielded an EC50 in data set [1] of 10000 nM.

Turning to `C/C(=N\OCc1ccc(-c2ccccc2)c(F)c1)c1ccc(CNCCC(=O)O)cc1`, in data set [1], the EC50 turned out to be 61 nM.

Turning to `C/C(=N\OCc1ccc(C2CCCCC2)c(C(F)(F)F)c1)c1ccc(CNCCC(=O)O)s1`, the results for the EC50 in [1] and in [4] were 2.2 nM and 4000 nM, respectively. The results for the Emax in data set [2] and in [3] were 104% and 79%, respectively.

Turning to `C/C(=N\OCc1ccc(-c2ccco2)c(C(F)(F)F)c1)c1ccc(CNCCC(=O)O)cc1`, the EC50 in data set [1] turned out to be 15 nM; in data set [4], 3000 nM.

For `C/C(=N\OCc1ccc(C2CCCCC2)c(C(F)(F)F)c1)c1ccc(CNCCC(=O)O)o1`, the concentration giving a half-maximal response (EC50) in data set [1] was found to be 17 nM; in data set [4], 2500 nM. Moreover, the Emax in data set [2] came to 100%; in data set [3] it was 62%.

Regarding `C/C(=N\OCc1ccc(C2CCCCC2)c(C(F)(F)F)c1)c1ccc(CNCCC(=O)O)c(F)c1`, the EC50 in [1] came out at 0.3 nM; in data set [4], 2200 nM. Further, the Emax in data set [2] was 105%; in data set [3] it was 61%.

`C/C(=N\OCc1ccc(-c2ccccc2)c(C(F)(F)F)c1)c1ccc(CNCCC(=O)O)cc1` yielded an EC50 in data set [1] of 9 nM.

Molecule `C/C(=N\OCc1ccc(-c2ccccc2)cc1C(F)(F)F)c1ccc(CNCCC(=O)O)cc1` had an EC50 in data set [1] of 10000 nM. Also, the Emax result in [2] is “inactive”.

Take `COc1ccccc1-c1ccc(CO/N=C(\C)c2ccc(CNCCC(=O)O)cc2)cc1`: in data set [1], it took 1400 nM to reach a half-maximal effect (EC50).

For `C/C(=N\OCc1ccc(C2CCCCC2)c(C(F)(F)F)c1)c1ccc(CNCCC(=O)O)c(Br)c1`, the EC50 was determined as 0.4 nM in [1] and 1100 nM in data set [4]. For the same molecule, the Emax in data set [2] was determined as 85%; in data set [3] it was 65%.

`C/C(=N\OCc1ccc(-c2ccccc2)cc1)c1ccc(CCC(N)(CO)CO)cc1` returned a Vdss in the data set on Mus musculus of 36.9 L/kg. Further, the half-life in [5] was over 30 h.

For `C/C(=N\OCc1ccc(-c2ccccc2F)c(C(F)(F)F)c1)c1ccc(CNCCC(=O)O)cc1`, the EC50 in data set [1] was 8 nM.

Regarding `C/C(=N\OCc1ccc(C2CCCCC2)c(C(F)(F)F)c1)c1ccc(CNCCC(=O)O)nc1`, the EC50 was 2.6 nM in data set [1] and 4300 nM in data set [4]. The Emax in data set [2] was 86%; in data set [3], 44%.

For `CCc1cc(/C(C)=N/OCc2ccc(C3CCCCC3)c(C(F)(F)F)c2)ccc1CN1CC(C(=O)O)C1` [SIPONIMOD], the permeability entry in the data set with Caco-2 is reported as “permeable”. Further, the figures for the Emax in [2] and in data set [3] were 91% and 55%, respectively. Further, the fraction unbound in data set [6], in data set [8], in data set [14] and in [16] was under 0.001 throughout. Further, the outcome with Rattus norvegicus [7] was inactive. For the same molecule, the half-life in data set [9] was 19 h; in [23] it was 6 h. The bioavailability in data set [10] worked out at 50%; in data set [20], 71%. Moreover, the Tmax in [11] was 8 h. Also, the clearance in data set [12] was 6 mL/min/kg; in [18], 1.63 mL/min/kg. Further, the Vd was 2.15 L/kg in data set [13] and 2.12 L/kg in [17]. Also, the Drug excretion entry in the data set listed under Rattus norvegicus [15] is listed as “Not Active”. In the data set on Rattus norvegicus [19], this molecule came in with an ED50 of 0.14 mg/kg. Moreover, the inhibition at 25 µM against hERG (KCNH2) is under 10%. The molecule also yielded an Activity in the data set with Rattus norvegicus [21] of 88%. Moreover, the Fa in [22] was found to be 58%. Also, the response in data set [4] was half-maximal at 5000 nM (EC50).

For the molecule `C/C(=N\OCc1ccc(C2CCCCC2)c(C(F)(F)F)c1)c1ccc(CNCCC(=O)O)cc1`, the EC50 in data set [1] came to 0.3 nM; in [4], 1500 nM.

In data set [1], `C/C(=N\OCc1ccc(-c2ccc(C)cc2)cc1)c1ccc(CNCCC(=O)O)cc1` displayed an EC50 of 640 nM.

Take `C/C(=N\OCc1ccc(-c2ccc(F)cc2)c(C(F)(F)F)c1)c1ccc(CNCCC(=O)O)cc1`: in [1], the EC50 was 11 nM.

In the case of `C/C(=N\OCc1ccc(-c2ccc(F)cc2)cc1)c1ccc(CNCCC(=O)O)cc1`, the EC50 in data set [1] worked out at 210 nM.

For orientation: EC50 means the concentration at which the effect is half-maximal. The term Emax denotes the maximal effect, on the per cent scale that the assay sets. A word on the bioavailability: it is the share of a dose that reaches the circulation, judged against a reference dose that is usually intravenous. By Tmax is commonly meant the time from dosing to the highest level. In general, clearance refers to the rate of elimination divided by the concentration. As usually defined, the ED50 is the midpoint of the dose-response relation. As a reminder, the inhibition is the change of the read-out against control, counted positive when it falls.
